Measurements: patent US7598234B2, “Steroid derived antibiotics” (Brigham Young University, priority 1998, dated 2009)
Converted amounts (≈) assume the structure as drawn.

Experiments:
[1] = tested on: Pseudomonas aeruginosa ATCC 27853; experiment: Growth inhibition and FIC with rifampicin, Pseudomonas aeruginosa ATCC 27853; type: cell-based; details: Table 13, Pseudomonas aeruginosa ATCC 27853^b; for FIC: rifampicin (by order); for concentration required to inhibit bacterial growth with antibiotic: rifampicin (by order) at 0.5, 1.0 or 3.0 μg/mL
Method: (§1) Alternatively, “fractional inhibitory concentration (FIC)” is also useful for determination of synergy between the compounds of the invention, or the compounds in combination with known antibiotics. FICs can be performed by checkerboard titrations of compounds in one dimension of a microtiter plate, and of antibiotics in the other dimension, for example. The FIC is calculated by looking at the impact of one antibiotic on the MIC of the other and vice versa. […] Preferably, an FIC of less than 0.5 is obtained for synergism. As used herein, FIC can be determined as follows:
(§2) Aliquots of 1 mL of the suspension were added to test tubes containing 1 mL TSB and incrementally varied concentrations of cholic acid derivatives and/or erythromycin or novobiocin. In the sensitization experiments, erythromycin or novobiocin were added 15 minutes later than the cholic acid derivatives. The samples were subjected to stationary incubation at 37° C. for 24 hours. Sample turbidity was determined by measuring absorption at 760 nm (HP 8453 UV-Visible Chemstation, Hewlett Packard). Additionally, an alliquot from each of the samples showing no measurable turbidity was subcultured on TSA plates (alliquots were diluted to provide fewer than 300 CFU). Colonies that grew on the subculture after overnight incubation were counted and the number of CFU/mL in the samples were calculated. The calculated values were compared to the number of CFU/mL in the original inoculum.
(§3) To measure permeabilization, the FIC values for compounds 1, 2, 5, 106, 10, 112, 133, and 134 with erythromycin, novobiocin, and rifampicin were determined. Concentrations of 0.5, 1.0 or 3.0 μg/mL of these antibiotics were used, and the concentrations of the cholic acid derivatives required to inhibit bacterial growth of Gram-negative strains were determined.

[2] = tested on: Salmonella typhimurium ATCC 14028; experiment: MIC and MBC measurement with Salmonella typhimurium ATCC 14028; type: cell-based; details: Table 10
Procedure, shortened: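 Inocula mixed 1:1 with TSB containing graded concentrations of cholic acid derivatives, alone or with erythromycin or novobiocin added 15 min later. After static incubation for 24 h at 37 °C, turbidity read at 760 nm; non-turbid samples subcultured on TSA and CFU/mL compared with the starting inoculum.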

[3] = tested on: Staphylococcus aureus ATCC 25923; experiment: MIC and MBC measurement with Staphylococcus aureus ATCC 25923; type: cell-based; details: Table 10; Staphylococcus aureus ATCC 25923
Procedure, shortened: (§4)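 Bacteria incubated statically 24 h at 37 °C in TSB with graded compound concentrations (erythromycin or novobiocin added 15 min later in sensitization runs). MIC from turbidity at 760 nm; MBC by subculturing clear samples on TSA and comparing CFU/mL to inoculum.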

[4] = tested on: Salmonella typhimurium ATCC 14028; experiment: Growth inhibition and FIC with rifampicin, Salmonella typhimurium ATCC 14028; type: cell-based; details: Table 13, Salmonella typhimurium ATCC 14028^b; for FIC: rifampicin (by order); for concentration required to inhibit bacterial growth with antibiotic: rifampicin (by order) at 0.5, 1.0 or 3.0 μg/mL
Method: as §1, §2, §3

E. coli (ATCC 10798) = experiment: Sensitization to novobiocin (concentration lowering the MIC of novobiocin), E. coli (ATCC 10798); type: cell-based, Escherichia coli
[5] = tested on: Pseudomonas aeruginosa (ATCC 27853); experiment: Sensitization to novobiocin, Pseudomonas aeruginosa (ATCC 27853); type: cell-based; details: for FIC / concentration required to inhibit bacterial growth with antibiotic: Table 12, Pseudomonas aeruginosa ATCC 27853; for FIC: novobiocin (by order); for concentration required to inhibit bacterial growth with antibiotic: novobiocin (by order) at 0.5, 1.0 or 3.0 μg/mL
Procedure, shortened: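 Tube checkerboard in TSB: cholic acid derivatives added, then erythromycin or novobiocin 15 min later, antibiotics at 0.5, 1.0 or 3.0 μg/mL; stationary 37 °C, 24 h. Turbidity read at 760 nm; clear samples subcultured on TSA for CFU counts versus inoculum; FIC derived for synergy.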

[6] = tested on: Klebsiella pneumonia ATCC 13883; experiment: Growth inhibition and FIC with rifampicin, Klebsiella pneumoniae ATCC 13883; type: cell-based; details: for FIC: Table 13, rifampicin (by order); for concentration required to inhibit bacterial growth with antibiotic: Table 13, rifampicin (by order) at 0.5, 1.0 or 3.0 μg/mL
Method: as §1, §2, §3

[7] = tested on: Candida albicans ATCC 90028; experiment: MIC and MBC measurement with Candida albicans ATCC 90028; type: cell-based; details: Table 10
Excerpt: General: Microorganisms. Reference strains were purchased from the American Type Culture Collection (Rockville, Md.) or Bactrol disks from Difeo Laboratories (Detroit, Mich.). The following specific ATCC strains were used: 10798 Escherichia coli, 25922 Escherichia coli, 13883 Klebsiella pneumoniae, 27853 Pseudomonas aeruginosa, 14028 Salmonella typhimurium, 29212 Enterococcus faecalis, 25923 Staphylococcus aureus, 19615 Streptococcus pyogenes, and 90028 Candida albicans. Bacterial strains were maintained on Mueller-Hinton agar plates, and Candida albicans was maintained on Sabouraud Dextrose agar plates.
Tryptic soy broth (TSB) was made by dissolving 27.5 grams of tryptic soy broth without dextrose (DIFCO Laboratories) in 1 liter of deionized water and sterilizing at 121° C. for 15 minutes. Solid agar (TSA) plates were made by dissolving 6.4 grams of tryptic soy broth and 12 grams of agar (purified grade, Fischer Scientific) in 800 mL of deionized water and sterilizing at 121° C. for 20 minutes. Aliquots (20 mL) of the homogeneous solution were then poured in sterile plastic petri dishes (100×15 mm, Fisher Scientific). Solutions of compounds were made by dissolving the HCl salt of the respective compound into an appropriate amount of deionized and sterilized water followed by microfiltration.
as §2

E. coli (ATCC 25922) = experiment: MIC and MBC measurement with E. coli (ATCC 25922); type: cell-based, Escherichia coli
Procedure, shortened: as §4

[8] = tested on: Salmonella typhimurium ATCC 14028; experiment: Growth inhibition and FIC with novobiocin, Salmonella typhimurium ATCC 14028; type: cell-based; details: for FIC: Table 12, novobiocin (by order); for concentration required to inhibit bacterial growth with antibiotic: Table 12, novobiocin (by order) at 0.5, 1.0 or 3.0 μg/mL
Method: as §1, §2, §3

[9] = tested on: E. coli containing an inducible luciferase coding plasmid; experiment: Luciferin/luciferase-based permeabilization / cell lysis assay; design: species or system Escherichia coli; details: permeabilization of the outer membrane allowing luciferin to enter the cell
Method: Using a technique described by J. M. Shupp, S. E. Travis, L. B. Price, R. F. Shand, P. Keim, RAPID BACTERIAL PERMEABILIZATION REAGENT USEFUL FOR ENZYME ASSAYS, Biotechniques, 1995, vol.
In this assay, E. coli containing an inducible luciferase coding plasmid was incubated with the inducing agent […], then treated with a lysis buffer containing either PMB or one of the cholic acid derivatives, and Triton X-100. Luciferin and ATP were then added. […] The concentrations of the membrane disrupting agents (PMB and the cholic acid derivatives) were varied, and the resulting luminescence was measured.

[10] = Table 9, Escherichia coli (ATCC 10798)
[11] = Table 10, Escherichia coli ATCC 25922

Row | Compound | FIC [1] | concentration required to inhibit bacterial growth with antibiotic [1] | MBC [2] | MIC [2] | MBC [3] | MIC [3] | FIC [4] | concentration required to inhibit bacterial growth with antibiotic [4] | FIC [5] | concentration required to inhibit bacterial growth with antibiotic [5] | FIC [6] | concentration required to inhibit bacterial growth with antibiotic [6] | MBC [7] | MIC [7] | MBC (E. coli (ATCC 25922); [11]) | MIC (E. coli (ATCC 25922); [11]) | FIC [8] | concentration required to inhibit bacterial growth with antibiotic [8] | further results
1 | C[C@]12CC[C@@H](OCCCN)C[C@H]1C[C@@H](OCCCN)[C@@H]1[C@@H]2C[C@H](OCCCN)[C@]2(C)[C@@H](O)CC[C@@H]12 [Compound 106] | 0.17 | 11 µg/mL | >100 µg/mL | >100 µg/mL | 54 µg/mL (≈ 109 µM) | 8.6 µg/mL (≈ 17.3 µM) | 0.064 | 1.4 µg/mL | 0.36 | 30 µg/mL | 0.044 | 1.8 µg/mL | 92 µg/mL (≈ 186 µM) | 75 µg/mL (≈ 151 µM) | 90 µg/mL (≈ 182 µM) | 80 µg/mL (≈ 161 µM) | 0.094 | 8.4 µg/mL | (d) Concentration required to lower the MIC of novobiocin from >500 to 1 μg/mL (E. coli (ATCC 10798); [10]): 50 µg/mL; FIC values with novobiocin (E. coli (ATCC 10798); [10]): 0.36
2 | C[C@H](CCCN(C)Cc1ccccc1)[C@H]1CC[C@H]2[C@@H]3[C@H](OCCCN)C[C@@H]4C[C@H](OCCCN)CC[C@]4(C)[C@H]3C[C@H](OCCCN)[C@]12C [Compound 2] | 0.086 | 0.50 µg/mL | 16 µg/mL (≈ 23.9 µM) | 13 µg/mL (≈ 19.4 µM) | 4.7 µg/mL (≈ 7.02 µM) | 1.0 µg/mL (≈ 1.49 µM) | 0.079 | 0.39 µg/mL | 0.27 | 2.9 µg/mL | 0.035 | 0.12 µg/mL | 42 µg/mL (≈ 62.8 µM) | 30 µg/mL (≈ 44.8 µM) | 6.8 µg/mL (≈ 10.2 µM) | 5.1 µg/mL (≈ 7.62 µM) | 0.36 | 4.5 µg/mL | half maximum luminescence [9]: 7 µg/mL; MIC: concentration required to lower the MIC of novobiocin from >500 μg/mL to 1 μg/mL (E. coli (ATCC 10798); Table 3, E. coli (ATCC 10798)): 7 µg/mL; MBC (with novobiocin) (E. coli (ATCC 10798); Table 3, E. coli (ATCC 10798), novobiocin sensitization): 16 µg/mL; MIC: concentration required to lower the MIC of novobiocin from >500 μg/mL to 1 μg/mL ([5]; Table 8, P. aureginosa (ATCC 27853)): 4 µg/mL; MBC (E. coli (ATCC 25922); Table 4, E. coli (ATCC 25922)): 20 µg/mL (≈ 29.9 µM); MIC (E. coli (ATCC 25922); Table 4, E. coli (ATCC 25922)): 10 µg/mL (≈ 14.9 µM)
